From patent US12310950B2, “Formulations of pyrrolopyridine-aniline compounds” (NFLECTION THERAPEUTICS, INC., priority 2021, dated 2025)
“Also recorded” adds a separate entry of the source. One block for each compound: values may come before it.

How the values were obtained:
p-ERK [1] = assay: Ex vivo cutaneous neurofibroma explants (Example 20): p-ERK by immunohistochemistry; format: cell-based, human; details: 3 μl of gel formulation on explant; 0.1% or 0.5% by weight
Method: The study was conducted using a protocol similar to Example 16 with some modifications as described below.
Skin samples divided to smaller 3-4 mm pieces and placed dermal side down onto membranes. The edges of the samples were sealed with semisoft 3% agarose prepared in DMEMF-12 medium, and the apical surface was kept in contact with air to use formulations. The basal surface was in contact with the growth medium DMEMF-12 containing 10% human serum, Amphotericin B, Penicillin-Streptomycin and 1XB27. This set up enables testing of transdermal drug delivery while the tissues remain viable in the medium for the duration of the test. 3 μl of the test formulation was used.
Immunohistochemistry: Immunohistochemistry for p-ERK was performed using standard operating procedures and fully automated workflow.
3 μl of the test formulation was used.

[2] = test system: phosphorylated-ERK1/2 (pERK); assay: Human cSCC explant: immunohistochemistry for p-ERK; format: cell-based; details: 0.1% Compound 1.003 in NA-1a gel formulation on epidermal surface for 4 hours, vs vehicle
cSCC [3] = assay: UV-driven mouse model of cSCC, chemoprevention study: number of tumors; format: in vivo, Hairless SKH-1E mice
Method: 136, no. 9, 2016, pp. 1920-1924 by Adelmann, C. H., et al., the entirety of which is incorporated herein by reference for all purposes. UV radiation was administered using a solar simulator (Oriel) metered at 12.5 kJ/m^2 UVB weekly, 3.4 SED for three months on Hairless SKH-1E mice.
Samples: The gel formulation (NA-1a) including Compound 1.003 in an amount of 0.1%, 0.5%, 1.0%, and 2.3% by weight of the formulation was used in the study.
(§1) A UV-driven mouse model was used to test if a topical formulation including Compound 1.003 could be used to reduce tumor burden in vivo. […] Once a mouse developed one tumor that measured 3 mm in diameter, they were randomly assigned to receive Vehicle, 0.1% Compound 1.003, 0.5% Compound 1.003, 1.0% Compound 1.003, or 2.3% Compound 1.003. Once enrolled, mice were treated with 200 uL of vehicle or the gel formulation of Compound 1.003. Drug was evenly applied to the back skin of the mouse and allowed to dry. Mice were treated for 30 days (5 d/week). […] Skin biopsies were obtained 4 hours after drug treatment at end of study.

cSCC [4] = assay: UV-driven mouse model of cSCC, split-mouse study: total tumor burden; format: in vivo, Hairless SKH-1E mice; details: split-control, 1.0% Compound 1.003 on one side, vehicle on the other, 30 days, n=5
Method: To internally control for potential systemic exposure, 5 mice were treated in split-control fashion with one side getting vehicle only and the other side of the same mouse receiving topical 1.0% Compound 1.003. Total tumor burden (summed volume) is quantified in untreated vs. treated sides at the beginning (black) as compared to the end of treatment 30 days later (n=5).
To definitively address the possibility of systemic exposure and non-local effects of topically applied Compound 1.003, 5 mice was treated in split-control fashion with one side with vehicle only and the other side with 1.0% Compound 1.003.

ICI = assay: CellTiter-Glo Luminescent Cell Viability Assay, SCC cells ICI; format: cell-based, human; details: 72 hours, 0.01-30 μM, compared to NHEK
p-ERK1/2 = assay: UV-driven mouse model of cSCC: nano-immunoassay for p-ERK1/2 and total ERK1/2 in skin biopsies; format: in vivo, Hairless SKH-1E mice
Method: as §1

p-ERK [5] = assay: p-ERK suppression in rat skin by oral administration; format: in vivo
Method: p-ERK suppression in rat skin was evaluated by oral administration of Compound 1.003.

p-ERK [6] = assay: Ex vivo human cutaneous neurofibroma explants (Example 16): p-ERK by Western Blot; format: cell-based; details: Compound 1.003 0.5% and 1.5%, topical on explant, 4 hours
Method: Biopsies of cutaneous neurofibroma were taken from patients undergoing excision of neurofibromas for clinical purposes. The ex vivo human explant model was established by incubating sections of biopsies of human cutaneous neurofibroma. Cutaneous Neurofibroma samples were removed from patients, transferred immediately to the lab in 15 ml […] tubes containing 5 ml DMEM/F-12 medium (Thermo Fisher, Cat #11320033) supplemented with 1XB27 supplement (Gibco™ B-27™ Supplement (50×) serum free (Cat #17504044), 2.5 μg/ml of Amphotericin B (Thermo Fisher, Cat #15290018), and 50 units/ml of Penicillin-50 μg/ml of Streptomycin (Thermo Fisher, Cat #15070063), and 10% human serum (Gemini 100-110). Skin samples divided to smaller 3-4 mm pieces and placed dermal side down onto membranes (Transwell Permeable Supports, 12 well plate, Corning 12 mm Transwell® with 3.0 μm Pore Polycarbonate Membrane Insert, Sterile Corning #3402). The edges of the samples were sealed with semisoft 3% agarose (Sigma, CAS 9012-36-6) prepared in DMEMF-12 medium, and the apical surface was kept in contact with air to use formulations. […]
Western Blot analysis: Frozen skin samples were thawed on ice and weighed. […] The lysate protein concentration was determined by the BCA protein assay kit using bovine serum albumin (BSA) as standards. […]

p-ERK [7] = assay: Minipig non-GLP 28-day dermal tolerability study: p-ERK suppression in skin; format: in vivo; details: Compound 1.003 in gel formulation (NA-1a), 0.01% and 0.1%, 28 days
Method: Non-GLP 28-Day Dermal Tolerability Study: 4 doses of A-D formulations applied to each of 4 pigs (2 females, 2 males), where A: vehicle (NA-1a without Compound 1.003) at 30 uL/cm^2; B: NA-1a-0.01% at 10 uL/cm^2; C: NA-1a-0.1% at 30 uL/cm^2; and D: NA-1a-0.1% at 10 uL/cm^2. Minipigs were treated […] for 28 days. Biopsy obtained 4 hours after last dose on Day 28.

COLO 16 = assay: CellTiter-Glo Luminescent Cell Viability Assay, SCC cells COLO 16; format: cell-based, human; details: 72 hours, 0.01-30 μM, compared to NHEK
in vivo = details: rat, po, 300 mg/kg/day
[8] = UV-driven mouse model of cSCC: tolerability (skin, body weight); format: in vivo, Hairless SKH-1E mice; details: topical 0.1%-2.3%, 30 days
Method: as §1

[9] = systemic exposure; cited from earlier work

Cmax (in vivo): ~1360 ng/mL
Structure (SMILES): Cn1c(Nc2ccc(I)cc2F)c(C(=O)NOCCO)c2cccnc21 [Compound 1.003]
suppression of p-ERK by immunohistochemistry (p-ERK [1]): Dose dependent suppression
suppression of p-ERK in human cSCC specimens (immunohistochemistry) [2]: robust suppression of p-ERK
number of tumors at the end of treatment, 0.1% (cSCC [3]; 0.1% in gel (NA-1a), 30 days, n=10 mice, vehicle 60 tumors): 31 tumors
number of tumors at the end of treatment, 0.5% (cSCC [3]; 0.5% in gel (NA-1a), 30 days, n=10 mice, vehicle 60 tumors): 23 tumors
suppression of new tumors at 1.0% dose and above (cSCC [3]; 1.0% dose and above, 30 days, n=10 per group): near complete suppression of new tumors
number of tumors at the end of treatment, 1.0% (cSCC [3]; 1.0% in gel (NA-1a), 30 days, n=10 mice, vehicle 60 tumors): 13 tumors
number of tumors at the end of treatment, 2.3% (cSCC [3]; 2.3% in gel (NA-1a), 200 uL, 30 days (5 d/week), n=10 mice, vehicle 60 tumors): 16 tumors
total tumors / new tumor formation (FIG. 5) (cSCC [3]; gel formulation (NA-1a), 0.1%-2.3%, 30 days): dramatically suppresses new tumor formation; also recorded: suppression of total tumors
decrease in the total number of tumors present at the end of treatment (cSCC [3]; highest doses of Compound 1.003, vs vehicle): approximately 4 fold
total tumor volume / tumor burden on the treated side (cSCC [4]): Substantial tumor regression and tumor suppression; also recorded: decreased to nearly undetectable levels
cell viability, ICI (ICI): dose dependent reduction in cell viability
p-ERK levels in skin biopsies (nano-immunoassay) (p-ERK1/2; 0.1% and greater vs vehicle, biopsies 4 hours after drug treatment at end of study): suppression of p-ERK levels
suppression of p-ERK levels in mouse skin (FIG. 6B, text) (p-ERK1/2; concentrations 0.6 or greater (so in the source), in %): ≥ 65
suppression of p-ERK levels in mouse skin (FIG. 6B legend) (p-ERK1/2; mouse skin treated with Compound 1.003): ≥ 65%
change of p-ERK after oral administration (FIG. 2) (p-ERK [5]; rat skin, oral, various doses): no change of p-ERK
suppression of p-ERK in the skin (p-ERK [5]; rat, 21-days of oral administration at 300 mg/kg/day): not observed
suppression of p-ERK by Western Blot analysis (p-ERK [6]): complete suppression of p-ERK
suppression of p-ERK in minipig skin (FIG. 1) (p-ERK [7]): dose dependent suppression of p-ERK
cell viability, COLO 16 (COLO 16): dose dependent reduction in cell viability
skin peeling or erosions [8]: No skin peeling or erosions were observed
weight loss (biweekly weight measurement) [8]: no weight loss

Structure (SMILES): O=C1CCCc2c1sc(Nc1ccc(I)cc1F)c2C(=O)NOCCO [Compound 2.003]
suppression of p-ERK by immunohistochemistry (p-ERK [1]): Dose dependent suppression

Structure (SMILES): O=C(NOC[C@H](O)CO)c1ccc(F)c(F)c1Nc1ccc(I)cc1F [PD0325901]
side effects in clinical trials [9]: neurological side effects associated with ataxia, confusion, and syncope
